Assay results published in patent US10889553B2, “Asymmetric triazole benzamide derivatives and the compositions and methods of treatment regarding the same” (NysnoBio Ireland DAC, priority 2017, dated 2021).
Values joined by “and” are separate entries in the source; they are usually repeats but may differ in a detail not shown here. Equal values may be shown once. Read-outs that look alike come from different tables or passages of the source.

Legend:
Parkin ligase = target: T1, Parkin ligase (Homo sapiens, UniProt O60260); assay: Activity-Based Probe Assay using Ubiquitin vinyl sulfone probe (TR-FRET); format: biochemical; conditions: heat activated Parkin, HA-Ub-VS probe, activation EC50; read-out: Probe Assay EC50 (μM) [Example 2]
T1 sequence (O60260 1-465): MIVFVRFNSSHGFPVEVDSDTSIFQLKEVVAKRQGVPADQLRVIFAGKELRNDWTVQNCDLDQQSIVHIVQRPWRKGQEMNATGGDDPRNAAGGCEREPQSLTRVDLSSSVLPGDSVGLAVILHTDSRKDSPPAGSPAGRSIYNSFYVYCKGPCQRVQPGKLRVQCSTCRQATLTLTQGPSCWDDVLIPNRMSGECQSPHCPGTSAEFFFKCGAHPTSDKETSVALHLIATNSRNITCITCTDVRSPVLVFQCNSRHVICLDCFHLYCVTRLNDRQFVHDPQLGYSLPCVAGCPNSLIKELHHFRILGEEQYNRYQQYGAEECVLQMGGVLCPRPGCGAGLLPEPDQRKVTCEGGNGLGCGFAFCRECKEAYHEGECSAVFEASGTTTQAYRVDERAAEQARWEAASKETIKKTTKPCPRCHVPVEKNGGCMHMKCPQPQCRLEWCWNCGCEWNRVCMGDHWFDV
Procedure, shortened: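 Heat-activated His-Parkin (5 min, 58 °C; 40 nM) was preincubated 15 min with compound, then reacted 60 min at 22 °C with 70 nM HA-Ub-VS in 50 mM HEPES pH 8.5, 150 mM NaCl, 0.01% Tween 20, 0.1% BSA. Probe labelling was read by anti-His-Eu/anti-HA-XL665 TR-FRET (665/615 ratio). % activation was normalized to DMSO and 100 nM control activator, then fitted with a four-parameter curve (Bottom=0, Top=100).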

HCT-116 (colon) = assay: Cancer cell proliferation assay (acid phosphatase); format: cell-based; conditions: Table 6A, 72 hrs, read-out: HCT-116 IC50
Procedure: (§1) Measurement of the inhibitive effect of compounds on cancer cell proliferation was performed. Various cell lines were tested, including HCT-116 (colon); A549 (lung); TOV-21G (ovarian); Calu-6 (lung); and LS-174T (colon); and cell lines H1703 (Lung) and SKOV3 (ovarian); JEKO-1 (lymophoma); TOV-112D (ovarian) are tested. The assays were performed under the following conditions: Cells are harvested at a concentration of 4×10^4 cells/ml in media. Volumes of 100 μl/well of these cell suspensions were added to a 96 well plate using a multichannel pipette. Plates were gently agitated to ensure an even dispersion of cells over a given plate. Cells were then incubated at 37° C., 5% CO2 overnight. Following this, 100 μl of compound at varying concentrations was added to wells in triplicate. Control wells are those with 100 μl media containing 0.33% DMSO added to cell suspension (this is the equivalent volume of DMSO found in the highest concentration of drug). Plates were then gently agitated, as above, and incubated at 37° C., 5% CO2 for 72 hrs (control wells have reached 80-90% confluency). Assessment of cell proliferation in the presence of the compound was determined by the acid phosphatase assay.
(§2) Following the incubation period of 72 hrs, media was removed from the plates. Each well on the plate was washed twice with 100 μl PBS. This was then removed and 100 μl of freshly prepared phosphatase substrate (10 mM p-nitrophenol phosphate in 0.1M sodium acetate, 0.1% triton X-100, pH 5.5) was added to each well. The plates were then incubated in the dark at 37° C. for 2 hours. Colour development was monitored during this time. The enzymatic reaction was stopped by the addition of 50 μl of 1N NaOH. The plate was read in a dual beam plate reader at 405 nm with a reference wavelength of 620 nm. The absorbance reading of the latter is subtracted from the former, and the effect of the drug on cell proliferation was then measured as a percentage against the control cells (DMSO), which is taken as 0% inhibition.

A549 (lung) = assay: Cancer cell proliferation assay (acid phosphatase); format: cell-based; conditions: Table 6A, 72 hrs, read-out: A549 IC50
Procedure: as §1, §2

TOV-21G (ovarian) = assay: Cancer cell proliferation assay (acid phosphatase); format: cell-based; conditions: Table 6A, 72 hrs, read-out: TOV-21G IC50
Procedure: as §1, §2

LS-174T (colon) = assay: Cancer cell proliferation assay (acid phosphatase); format: cell-based; conditions: Homo sapiens, LS174T; Table 6A; 72 hrs
Procedure: as §1, §2

[1] = Microsomal stability assay, rat liver microsomes; format: in vitro ADME; conditions: pH 7.4; rat liver microsomes 1.0 mg/mL, 1 μM compound, NADPH; read-out: RLM t1/2
Procedure: (§3) Compounds were also tested for metabolic stability in both rat liver microsomes (RLM) and the compounds are tested for human liver microsomes (HLM) and their half-life is calculated (See Tables 5A and 5B). The assay was performed as follows. The total volume for each incubation was 250 μL. A 100 μM DMSO solution of compound (diluted from 10 mM stock solution) was spiked into 50 mM KH2PO4 (pH 7.4) buffer containing liver microsome at a concentration of 1.0 mg/mL. The reaction was initiated by the addition of 50 μL of 1 mM NADPH. The final concentration of each compound was 1 μM (1% DMSO). The positive controls, phenacetin for CYP1A2, diclofenac for CYP2C9, omeprazole for CYP2C19, dextromethorphan for CYP2D6 and midazolam for CYP3A4 were added to a separate tube with the final substrate concentrations of 1 μM (1% DMSO) for evaluating the enzyme activities in the liver microsomes. At 0, 15, 30 and 60 min, an aliquot of 15 μL reaction mixtures were removed and 200 μL of methanol (with internal standard of 25 ng/mL propranolol) was added to quench the reaction. The resulting mixture was centrifuged and supernatant was used for LC-MS/MS analysis.
(§4) The signals for each compound, or the metabolites for the probe substrates and the internal standard were integrated and the peak area ratios to internal standard were generated. Percent parent remaining at a specified timepoint was calculated based on the peak area ratios at time 0 (as 100%) for in vitro metabolic stability studies in liver microsome and hepatocyte. The observed rate constant (kobs) for the metabolism of substrates was calculated by plotting the natural log of percentage substrate remaining versus time of incubation with the slope being kobs. The half-life (T1/2) was calculated according to the following equation: T1/2=[…]

[2] = Microsomal stability assay, human liver microsomes; format: in vitro ADME; conditions: pH 7.4; human liver microsomes 1.0 mg/mL, 1 μM compound, NADPH; read-out: HLM t1/2
Procedure: as §3, §4

Cc1ccccc1C(=O)Nc1nc(NC(=O)c2ccccc2C)n(-c2ccc(N3CCN(C(=O)OC(C)(C)C)CC3)cc2)n1 [Compound 59]
EC50 (Parkin ligase): 3 µM
IC50 (HCT-116 (colon); Homo sapiens, HCT-116, 72 h): 801 µM
IC50 (A549 (lung); Homo sapiens, A549, 72 h): 810 µM
IC50 (TOV-21G (ovarian); Homo sapiens, TOV21G, 72 h, heading: TOV-21G IC50): 0.938 µM

O=C(Nc1nc(NC(=O)c2cccnc2)n(-c2ccc(OC(F)(F)F)cc2)n1)c1cccnc1 [Compound 61]
EC50 (Parkin ligase): 12 µM and 10 µM and 13 µM
IC50 (HCT-116 (colon); Homo sapiens, HCT-116, 72 h): 2.1 µM
IC50 (TOV-21G (ovarian); Homo sapiens, TOV21G, 72 h): 1.4 µM

O=C(Nc1nc(NC(=O)c2cccnc2)n(-c2ccc(C(F)(F)F)cc2)n1)c1cccnc1 [Compound 62]
EC50 (Parkin ligase): 8 µM
IC50 (HCT-116 (colon); Homo sapiens, HCT-116, 72 h): 2.7 µM
IC50 (A549 (lung); Homo sapiens, A549, 72 h): 2 µM

Cc1ccccc1C(=O)Nc1nc(NC(=O)c2ccccc2C)n(-c2ccc(N3CCC3)cc2)n1 [Compound 64]
EC50 (Parkin ligase): 8 µM
IC50 (LS-174T (colon)): 2.6 µM
IC50 (HCT-116 (colon); Homo sapiens, HCT-116, 72 h): 2.3 µM
IC50 (A549 (lung); Homo sapiens, A549, 72 h): 2.4 µM
IC50 (TOV-21G (ovarian); Homo sapiens, TOV21G, 72 h): 2.4 µM

O=C(Nc1nc(NC(=O)c2ccncc2)n(-c2ccc(OC(F)(F)F)cc2)n1)c1ccncc1 [Compound 65]
EC50 (Parkin ligase): 5 µM
IC50 (HCT-116 (colon); Homo sapiens, HCT-116, 72 h): 2.5 µM
IC50 (TOV-21G (ovarian); Homo sapiens, TOV21G, 72 h): 2.5 µM

Cc1ccccc1C(=O)Nc1nc(NC(=O)c2ccno2)n(-c2ccc(OC(F)(F)F)cc2)n1 [Compound 71]
EC50 (Parkin ligase): 3 µM
IC50 (HCT-116 (colon); Homo sapiens, HCT-116, 72 h): 2.5 µM
IC50 (A549 (lung); Homo sapiens, A549, 72 h): 2.4 µM

Cc1ccccc1C(=O)Nc1nc(NC(=O)c2ccno2)n(-c2cccc(F)c2)n1 [Compound 73]
EC50 (Parkin ligase): 12 µM
IC50 (HCT-116 (colon); Homo sapiens, HCT-116, 72 h): 2.5 µM
IC50 (A549 (lung); Homo sapiens, A549, 72 h): 2.5 µM

Cc1ccccc1C(=O)Nc1nc(NC(=O)c2ccno2)n(-c2ccc(C(F)(F)F)cc2)n1 [Compound 75]
EC50 (Parkin ligase): 4 µM
IC50 (LS-174T (colon)): 1 µM
IC50 (HCT-116 (colon); Homo sapiens, HCT-116, 72 h): 2.4 µM
IC50 (A549 (lung); Homo sapiens, A549, 72 h): 2.5 µM

Cc1ccccc1C(=O)Nc1nc(NCc2ccccc2)nn1-c1ccc(Cl)cc1 [Compound 108]
EC50 (Parkin ligase): 1.5 µM
IC50 (HCT-116 (colon); Homo sapiens, HCT-116, 72 h): > 2.5 µM
IC50 (A549 (lung); Homo sapiens, A549, 72 h): > 2.5 µM
IC50 (TOV-21G (ovarian); Homo sapiens, TOV21G, 72 h): > 2.5 µM

Cc1ccccc1C(=O)Nc1nc(NCc2ccccc2Cl)nn1-c1ccc(OC(F)(F)F)cc1 [Compound 116]
EC50 (Parkin ligase): 2 µM
IC50 (HCT-116 (colon); Homo sapiens, HCT-116, 72 h): > 2.5 µM
IC50 (A549 (lung); Homo sapiens, A549, 72 h): > 2.5 µM
IC50 (TOV-21G (ovarian); Homo sapiens, TOV21G, 72 h): > 2.5 µM

Cc1cccc(-c2nc(NC(=O)c3ccccc3C)n(-c3ccc(OC(F)(F)F)cc3)n2)n1 [Compound 126]
EC50 (Parkin ligase): 2 µM
IC50 (LS-174T (colon)): 1 µM
IC50 (HCT-116 (colon); Homo sapiens, HCT-116, 72 h): 1.7 µM
IC50 (A549 (lung); Homo sapiens, A549, 72 h): 1.4 µM
IC50 (TOV-21G (ovarian); Homo sapiens, TOV21G, 72 h): 1.9 µM

Cc1cccc(-c2nc(NC(=O)c3ccccc3C)n(-c3ccc(Cl)cc3)n2)n1 [Compound 127]
EC50 (Parkin ligase): 2 µM
IC50 (LS-174T (colon)): 1.6 µM
IC50 (HCT-116 (colon); Homo sapiens, HCT-116, 72 h): 1.7 µM
IC50 (A549 (lung); Homo sapiens, A549, 72 h): 1.1 µM
IC50 (TOV-21G (ovarian); Homo sapiens, TOV21G, 72 h): 2.1 µM

Cc1ccccc1C(=O)Nc1nc(-c2cccc(F)n2)nn1-c1cccc(F)c1 [Compound 128]
EC50 (Parkin ligase): 5 µM
IC50 (HCT-116 (colon); Homo sapiens, HCT-116, 72 h): 2.5 µM
IC50 (A549 (lung); Homo sapiens, A549, 72 h): 2.5 µM
IC50 (TOV-21G (ovarian); Homo sapiens, TOV21G, 72 h): 2.4 µM

Cc1ccccc1C(=O)Nc1nc(-c2cccc(F)n2)nn1-c1ccc(OC(F)(F)F)cc1 [Compound 129]
EC50 (Parkin ligase): 3 µM
IC50 (HCT-116 (colon); Homo sapiens, HCT-116, 72 h): 2.4 µM
IC50 (A549 (lung); Homo sapiens, A549, 72 h): 2.5 µM
IC50 (TOV-21G (ovarian); Homo sapiens, TOV21G, 72 h): 2 µM

Cc1ccccc1C(=O)Nc1nc(-c2cccc(F)n2)nn1-c1ccc(C(F)(F)F)cc1 [Compound 131]
EC50 (Parkin ligase): 2 µM
IC50 (HCT-116 (colon); Homo sapiens, HCT-116, 72 h): 2.3 µM
IC50 (A549 (lung); Homo sapiens, A549, 72 h): 2.3 µM
IC50 (TOV-21G (ovarian); Homo sapiens, TOV21G, 72 h): 2.2 µM

Cc1ccccc1C(=O)Nc1nc(-c2cccc(F)n2)nn1-c1cccc(F)c1 [Compound 132]
EC50 (Parkin ligase): 3 µM
IC50 (HCT-116 (colon)): 2.2 µM
IC50 (A549 (lung)): 2.4 µM
IC50 (TOV-21G (ovarian)): 1.9 µM

Cc1cccc(-c2nc(NC(=O)c3ccccc3C)n(-c3ccc(C(F)(F)F)cc3)n2)n1 [Compound 133]
EC50 (Parkin ligase): 1 µM
IC50 (HCT-116 (colon); Homo sapiens, HCT-116, 72 h): 2.3 µM
IC50 (A549 (lung); Homo sapiens, A549, 72 h): 2.5 µM
IC50 (TOV-21G (ovarian); Homo sapiens, TOV21G, 72 h): 1.8 µM

Cc1ccccc1C(=O)Nc1nc(-c2cccc(F)n2)nn1-c1ccc(Cl)cc1 [Compound 134]
EC50 (Parkin ligase): 4 µM
IC50 (HCT-116 (colon); Homo sapiens, HCT-116, 72 h): 2.3 µM
IC50 (A549 (lung); Homo sapiens, A549, 72 h): 2.6 µM
IC50 (TOV-21G (ovarian); Homo sapiens, TOV21G, 72 h): 1.8 µM

Cc1ccccc1C(=O)Nc1nc(-c2ncccc2C)nn1-c1cccc(F)c1 [Compound 146]
EC50 (Parkin ligase): 1 µM
IC50 (HCT-116 (colon); Homo sapiens, HCT-116, 72 h): 0.4 µM
IC50 (A549 (lung); Homo sapiens, A549, 72 h): 0.3 µM
IC50 (TOV-21G (ovarian); Homo sapiens, TOV21G, 72 h): 0.5 µM

COc1ccccc1-c1nc(NC(=O)c2ccccc2C)n(-c2ccc(OC(F)(F)F)cc2)n1 [Compound 154]
IC50 (HCT-116 (colon); Homo sapiens, HCT-116, 72 h): > 2.5 µM
half-life at 1 μM [1]: 1.7 h
half-life at 1 μM [2]: 2.22 h

Cc1cccc(C(=O)Nc2nc(NC(=O)c3cccc(C)c3)n(-c3ccccc3)n2)c1 [Compound F3]
IC50 (HCT-116 (colon); Homo sapiens, HCT-116, 72 h): 2 µM
IC50 (A549 (lung); Homo sapiens, A549, 72 h): 2.3 µM
IC50 (TOV-21G (ovarian); Homo sapiens, TOV21G, 72 h): 2.3 µM
